Reference: patent US10227295B2, “Selective histone deactylase 6 inhibitors” (H. LEE MOFFITT CANCER CENTER AND RESEARCH INSTITUTE, INC., priority 2013, dated 2019)

Assays:
[1] = tested on: B16 melanoma; assay: In vivo B16 melanoma tumor growth in C57BL/6 mice; conditions: 25 mg/kg, intraperitoneal, three times weekly, B16 subcutaneous
[2] = tested on: NRAS and BRAF mutant human melanoma cell lines; assay: Human melanoma cell proliferation MTS assay; format: cell-based; conditions: 24 h, panel of human melanoma cell lines
Experimental: Cell proliferation was evaluated using various pan- and isotype selective HDACi in a broad panel of human melanoma cell lines. Briefly, cells were plated at 10×10^3/well in a 96 well flat bottom plate. The following day, media was changed to that containing different concentrations of HDACi or matched DMSO vehicle concentrations diluted in complete medium done in triplicate, all with a final concentration of less than 0.1% DMSO. Cells were incubated for 24 hours at 37° C. and 5% CO2. […] All values were then normalized and expressed as a percentage of medium control growth.

[3] = tested on: STAT3 in APCs; assay: STAT3 phosphorylation and recruitment to IL-10 gene promotor in APCs; format: cell-based
From the text: FIG. 26 is a flow chart depicting the experimental design of the in vitro antigen-presenting studies.
Human MCL cells display an enhanced expression of HDAC6. Disruption of HDAC6 in malignant B-cells inhibits their proliferation and is associated with induction of apoptosis. Pharmacologic or genetic disruption of HDAC6 in MCL cells augment their antigen-presenting capabilities leading to better T-cell activation and restoration of function of anergic Tcells in vitro. […] Disclosed herein is the rationale to use HDAC6 specific inhibitor(s) alone or in combination with STAT3 inhibitors in MCL.

[4] = tested on: melanoma antigens gp100, MART1, TYRP1 and TYRP2 in human melanoma cell lines; assay: Tumor antigen expression by qRT-PCR; format: cell-based; conditions: 48 hours
Experimental: (D) Expression of tumor antigens was measured in human WM164 non-target and HDAC6KD cells. (E) Expression of tumor antigens mart-1 and gp-100 was measured by western blot.
In addition to direct cytotoxicity, pan-HDACi have immunologic effects on melanoma including modulation of MHC, co-stimulatory molecules, and cytokine production. In both human and murine melanoma cell lines, genetic (FIG. 43A) and pharmacologic (FIG. 43B) disruption of HDAC6 led to increased surface expression of MHC I by flow cytometry.

[5] = tested on: antigen-specific T-cell responses; assay: In vivo antigen-specific T-cell response to vaccination; set-up: species or system mice; conditions: in vivo treatment
From the text: Tubastatin A-treated macrophages are better activators of […] and restore the responsiveness of anergicT-cells in vitro. […] Mechanistically, Tubastatin-A disrupt […] pathway and tip the balance towards immunogenic rather than tolerogenic macrophages.

[6] = tested on: B16 murine melanoma cells; assay: B16 melanoma cell growth inhibition MTS assay; format: cell-based; conditions: Mus musculus; B16 murine melanoma cells, 48 h, MTS
Experimental: B16 murine melanoma cells were plated at 5×10^3/well in 96 well flat bottom plates. The following day, media was changed to that containing various concentrations of HDACi or matched DMSO vehicle concentrations diluted in complete medium done in triplicate. Cells were incubated for 48 hours at 37° C. and 5% CO2. […] Briefly, 20 μL of reagent were added per well and incubated at 37° C. for 3 hours. […] All values were then normalized and expressed as a percentage of medium control (100%).

[7] = tested on: acetyl-tubulin and acetyl-histone3 in human melanoma cell lines; assay: Western blot of HDAC substrate acetylation in human melanoma cells; format: cell-based; conditions: 24 hrs
Experimental: Error bars represent standard deviation from triplicates. This figure is representative of three independent experiments. (F,G,H) Cell cycle analysis of melanoma WM164, WM983A and WM793 human melanoma cell lines stained with propidium iodide. Data is representative of three experiments with similar results.
To confirm the selectivity of isotype specific HDACi, Western blot analysis was performed on the acetylation status of known HDAC substrates including histone H3 and H4, which are known Class I HDAC targets, and α-tubulin, a target for HDAC6. The doses required to impart the anti-proliferative effect coincided with that needed to increase acetylation of the respective HDAC substrates (FIG. 41F-41H). […] Conversely, HDAC6 selective inhibitors (HDAC6i) increase α-tubulin acetylation but not histone acetylation (FIG. 41F).

[8] = tested on: human melanoma cell lines; assay: Cell cycle analysis by propidium iodide staining; format: cell-based
Experimental: Cells were treated with indicated doses of HDAC inhibitors or DMSO control and then trypsinized, washed, and rendered into a single cell suspension in 1 mL of DPBS. 4 mL ice cold 200 proof ethyl alcohol was added dropwise while vortexing to fix cells. Samples were washed and resuspended in 75% ethanol solution overnight. Then, cells were washed in PBS+0.1% Triton X-100 and counted. Equal numbers of cells were then stained in a solution containing 10 μg/mL RNAseA+1 μg/mL propidium iodide for 2 hours at room temperature. Data was then acquired using a FACSCaliber with at least 10,000 events collected. Cell cycle analysis was completed using ModFit LT (Verity Software House, Topsham, Me.).

SMILES	tumor growth [1]	concentration range inhibiting proliferation (in words) [2]	STAT3 phosphorylation and recruitment to the IL-10 gene promotor [3]	melanoma antigen expression at the mRNA level [4]	antigen-specific T-cell responses to vaccination [5]	GI50 [6] [µM]	acetylation of α-tubulin and histone [7]	cell cycle effects [8]
CN1CCc2c(c3ccccc3n2Cc2ccc(C(=O)NO)cc2)C1 [Tubastatin A, reference compound]	delayed tumor growth	low micromolar range	decreased STAT3 phosphorylation and recruitment to the IL-10 gene promotor	upregulation of melanoma antigens gp100, MART1, TYRP1 and TYRP2	enhances antigen-specific T-cell responses to vaccination	40.5 ± 1.21	increase acetyl-tubulin without modifying the acetylation status of Histone 3	
Nc1ccccc1NC(=O)c1ccc(CNc2nccc(-c3cccnc3)n2)cc1 [MGCD0103]		low micromolar range					unchanged	variable cell cycle effects
